Key:
COLO-792 = test: cells; format: functional, cell-based; details: Homo sapiens
Description: SANGER: Inhibition of human COLO-792 cell growth in a cell viability assay.

DG-75 = test: cells; format: functional, cell-based; details: Homo sapiens;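 also: growth inhibition of DG-75 cells, read out with a cell viability assay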
Description: SANGER: Inhibition of human DG-75 cell growth in a cell viability assay.

Detroit 562 = test: cells; format: functional, cell-based; details: Homo sapiens;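 also: growth inhibition of human Detroit 562 cells, read out by a cell viability assay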
Description: SANGER: Inhibition of human Detroit562 cell growth in a cell viability assay.

DoTc2-4510 = test: cells; format: functional, cell-based; details: Homo sapiens
EGI-1 = test: cells; format: functional, cell-based; details: Homo sapiens;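 also: cell viability readout used to gauge growth inhibition of EGI-1 cells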
Description: SANGER: Inhibition of human EGI-1 cell growth in a cell viability assay.

EHEB = test: cells; format: functional, cell-based; details: Homo sapiens;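 also: growth inhibition of human EHEB cells, read out with a cell viability assay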
Description: SANGER: Inhibition of human EHEB cell growth in a cell viability assay.

G-401 = test: cells; format: functional, cell-based; details: Homo sapiens
Description: SANGER: Inhibition of human G-401 cell growth in a cell viability assay.

GAMG = test: cells; format: functional, cell-based; details: Homo sapiens;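 also: cell growth inhibition measured by a viability assay in the GAMG human cell line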
Description: SANGER: Inhibition of human GAMG cell growth in a cell viability assay.

GP5d = test: cells; format: functional, cell-based; details: Homo sapiens;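 also: growth inhibition of human GP5d cells, read out with a cell viability assay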
Description: SANGER: Inhibition of human GP5d cell growth in a cell viability assay.

HCC1806 = test: cells; format: functional, cell-based; details: Homo sapiens;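 also: growth inhibition of the cancer cell line, determined with a cell viability assay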
Description: SANGER: Inhibition of human HCC1806 cell growth in a cell viability assay.

HN = test: cells; format: functional, cell-based; details: Homo sapiens
Description: SANGER: Inhibition of human HN cell growth in a cell viability assay.

HSC-3 = test: cells; format: functional, cell-based; details: Homo sapiens
Description: SANGER: Inhibition of human HSC-3 cell growth in a cell viability assay.

HuP-T4 = test: cells; format: functional, cell-based; details: Homo sapiens;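 also: cell viability assay measuring how much HuP-T4 cell growth is inhibited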
Description: SANGER: Inhibition of human HuP-T4 cell growth in a cell viability assay.

J82 = test: cells; format: functional, cell-based; details: Homo sapiens;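 also: growth inhibition of J82 cells, read out with a cell viability assay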
Description: SANGER: Inhibition of human J82 cell growth in a cell viability assay.

LCLC-103H cell line = test: cells; format: functional, cell-based; details: Homo sapiens
Description: SANGER: Inhibition of human LCLC-103H cell growth in a cell viability assay.

LN-405 = test: cells; format: functional, cell-based; details: Homo sapiens
Description: SANGER: Inhibition of human LN-405 cell growth in a cell viability assay.

LP-1 = test: cells; format: functional, cell-based; details: Homo sapiens;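 also: growth inhibition of human LP-1 cells, with the read-out taken from a cell viability assay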
Description: SANGER: Inhibition of human LP-1 cell growth in a cell viability assay.

M059J = test: cells; format: functional, cell-based; details: Homo sapiens;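 also: growth inhibition of M059J cells, read out with a cell viability assay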
Description: SANGER: Inhibition of human M059J cell growth in a cell viability assay.

M14 = test: cells; format: functional, cell-based; details: Homo sapiens;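 also: growth inhibition of M14 cells, read out with a cell viability assay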
Description: SANGER: Inhibition of human M14 cell growth in a cell viability assay.

MDA-MB-157 = test: cells; format: functional, cell-based; details: Homo sapiens
Description: SANGER: Inhibition of human MDA-MB-157 cell growth in a cell viability assay.

NB12 = test: cells; format: functional, cell-based; details: Homo sapiens;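 also: growth inhibition of human NB12 cells, read out by a cell viability assay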
Description: SANGER: Inhibition of human NB12 cell growth in a cell viability assay.

NCI-H1623 = test: cells; format: functional, cell-based; details: Homo sapiens;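 also: cell viability assay used as the read-out for growth inhibition of NCI-H1623 cells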
Description: SANGER: Inhibition of human NCI-H1623 cell growth in a cell viability assay.

NCI-H1792 = test: cells; format: functional, cell-based; details: Homo sapiens;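 also: growth inhibition of human NCI-H1792 cells, read out as cell viability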
Description: SANGER: Inhibition of human NCI-H1792 cell growth in a cell viability assay.

NCI-H187 = test: cells; format: functional, cell-based; details: Homo sapiens;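 also: growth inhibition of NCI-H187 cells, read out as cell viability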
Description: SANGER: Inhibition of human NCI-H187 cell growth in a cell viability assay.

NCI-H460 = test: cells; format: functional, cell-based; details: Homo sapiens;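 also: cell viability assay scoring growth inhibition of human NCI-H460 cells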
Description: SANGER: Inhibition of human NCI-H460 cell growth in a cell viability assay.

NCI-H520 = test: cells; format: functional, cell-based; details: Homo sapiens;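 also: growth inhibition of NCI-H520 cells, measured by a cell viability assay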
Description: SANGER: Inhibition of human NCI-H520 cell growth in a cell viability assay.

NCI-H64 = test: cells; format: functional, cell-based; details: Homo sapiens;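 also: growth inhibition of NCI-H64 cells, read out with a cell viability assay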
Description: SANGER: Inhibition of human NCI-H64 cell growth in a cell viability assay.

NCI-H716 = test: cells; format: functional, cell-based; details: Homo sapiens;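 also: growth inhibition of human NCI-H716 cells, measured by a cell viability assay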
Description: SANGER: Inhibition of human NCI-H716 cell growth in a cell viability assay.

NCI-H719 = test: cells; format: functional, cell-based; details: Homo sapiens;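 also: growth inhibition of the cultured cell line, read out with a viability assay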
Description: SANGER: Inhibition of human NCI-H719 cell growth in a cell viability assay.

OVCAR-3 = test: cells; format: functional, cell-based; details: Homo sapiens;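 also: growth inhibition of human OVCAR-3 cells, determined by a cell viability assay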
Description: SANGER: Inhibition of human OVCAR-3 cell growth in a cell viability assay.

PANC-08-13 = test: cells; format: functional, cell-based; details: Homo sapiens
Description: SANGER: Inhibition of human PANC-08-13 cell growth in a cell viability assay.

RD = test: cells; format: functional, cell-based; details: Homo sapiens
Description: SANGER: Inhibition of human RD cell growth in a cell viability assay.

RL = test: cells; format: functional, cell-based; details: Homo sapiens
Description: SANGER: Inhibition of human RL cell growth in a cell viability assay.

RMG-I = test: cells; format: functional, cell-based; details: Homo sapiens;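 also: growth inhibition of human RMG-I cells, read out with a cell viability assay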
Description: SANGER: Inhibition of human RMG-I cell growth in a cell viability assay.

RPMI-6666 = test: cells; format: functional, cell-based; details: Homo sapiens
Description: SANGER: Inhibition of human RPMI-6666 cell growth in a cell viability assay.

RPMI-7951 = test: cells; format: functional, cell-based; details: Homo sapiens
Description: SANGER: Inhibition of human RPMI-7951 cell growth in a cell viability assay.

RPMI 8402 = test: SANGER: Inhibition of human RPMI-8402 cell growth in a cell viability assay.; format: functional, cell-based
SCC-3 = test: cells; format: functional, cell-based; details: Homo sapiens;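 also: cell viability assay measuring inhibition of SCC-3 cell growth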
Description: SANGER: Inhibition of human SCC-3 cell growth in a cell viability assay.

SF-295 = test: cells; format: functional, cell-based; details: Homo sapiens;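 also: growth inhibition of SF-295 cells, read out with a cell viability assay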
Description: SANGER: Inhibition of human SF295 cell growth in a cell viability assay.

SK-HEP1 = test: cells; format: functional, cell-based, SK-HEP-1; details: Homo sapiens;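 also: cell viability readout used to quantify reduction in proliferation of human SK-HEP-1 cells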
Description: SANGER: Inhibition of human SK-HEP-1 cell growth in a cell viability assay.

SK-LU-1 = test: cells; format: functional, cell-based; details: Homo sapiens;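 also: cell viability assay measuring growth inhibition of human SK-LU-1 cells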
Description: SANGER: Inhibition of human SK-LU-1 cell growth in a cell viability assay.

SW1463 = test: cells; format: functional, cell-based; details: Homo sapiens;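 also: growth inhibition of SW1463 cells, determined with a cell viability assay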
Description: SANGER: Inhibition of human SW1463 cell growth in a cell viability assay.

SW48 = test: cells; format: functional, cell-based; details: Homo sapiens;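 also: growth inhibition of SW48 cells, read out with a cell viability assay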
Description: SANGER: Inhibition of human SW48 cell growth in a cell viability assay.

SW-620 = test: cells; format: functional, cell-based; details: Homo sapiens;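 also: growth inhibition of human SW-620 cells, measured by a cell viability assay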
Description: SANGER: Inhibition of human SW620 cell growth in a cell viability assay.

SW626 = test: cells; format: functional, cell-based; details: Homo sapiens;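 also: growth inhibition of SW626 cells, measured with a cell viability assay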
Description: SANGER: Inhibition of human SW626 cell growth in a cell viability assay.

T98G = test: cells; format: functional, cell-based; details: Homo sapiens;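 also: growth inhibition of T98G cells, read out by a cell viability assay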
Description: SANGER: Inhibition of human T98G cell growth in a cell viability assay.

TCC-SUP = test: cells; format: functional, cell-based; details: Homo sapiens;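 also: growth inhibition of TCC-SUP cells, read out with a cell viability assay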
Description: SANGER: Inhibition of human TCCSUP cell growth in a cell viability assay.

A204 = test: cells; format: functional, cell-based; details: Homo sapiens;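 also: growth inhibition of human A204 cells, read out with a cell viability assay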
Description: SANGER: Inhibition of human A204 cell growth in a cell viability assay.

ABC-1 = test: cells; format: functional, cell-based; details: Homo sapiens;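 also: growth inhibition of human ABC-1 cells, read out by a cell viability assay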
Description: SANGER: Inhibition of human ABC-1 cell growth in a cell viability assay.

BC1 cell line = test: SANGER: Inhibition of human BC-1 cell growth in a cell viability assay.; format: functional, cell-based
BCPAP = test: cells; format: functional, cell-based; details: Homo sapiens;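 also: growth inhibition of BCPAP cells, read out in a cell viability assay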
Description: SANGER: Inhibition of human BCPAP cell growth in a cell viability assay.

BFTC-905 = test: cells; format: functional, cell-based; details: Homo sapiens
Description: SANGER: Inhibition of human BFTC-905 cell growth in a cell viability assay.

BHT-101 = test: cells; format: functional, cell-based; details: Homo sapiens
Description: SANGER: Inhibition of human BHT-101 cell growth in a cell viability assay.

BPH-1 = test: cells; format: functional, cell-based; details: Homo sapiens;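 also: cell viability assay measuring growth inhibition of human BPH-1 cells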
Description: SANGER: Inhibition of human BPH-1 cell growth in a cell viability assay.

CAL-148 = test: cells; format: functional, cell-based; details: Homo sapiens
Description: SANGER: Inhibition of human CAL-148 cell growth in a cell viability assay.

CAL-39 = test: cells; format: functional, cell-based; details: Homo sapiens;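 also: cell viability assay measuring growth inhibition of CAL-39 cells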
Description: SANGER: Inhibition of human CAL-39 cell growth in a cell viability assay.

CAL-72 = test: cells; format: functional, cell-based; details: Homo sapiens;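 also: cell viability assay measuring inhibition of proliferation in the CAL-72 cell line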
Description: SANGER: Inhibition of human CAL-72 cell growth in a cell viability assay.

THP-1 = test: cells; format: functional, cell-based; details: Homo sapiens;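 also: growth inhibition of THP-1 cells, read out via a cell viability assay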
Description: SANGER: Inhibition of human THP-1 cell growth in a cell viability assay.

TUR = test: cells; format: functional, cell-based; details: Homo sapiens;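 also: growth inhibition of human TUR cells, read out with a cell viability assay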
Description: SANGER: Inhibition of human TUR cell growth in a cell viability assay.

UMC-11 = test: cells; format: functional, cell-based; details: Homo sapiens;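 also: growth inhibition of UMC-11 cells, read out with a cell viability assay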
Description: SANGER: Inhibition of human UMC-11 cell growth in a cell viability assay.

WM-115 = test: cells; format: functional, cell-based; details: Homo sapiens
Description: SANGER: Inhibition of human WM-115 cell growth in a cell viability assay.

CAMA-1 = test: cells; format: functional, cell-based; details: Homo sapiens;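 also: growth inhibition of CAMA-1 cells, read out with a cell viability assay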
Description: SANGER: Inhibition of human CAMA-1 cell growth in a cell viability assay.

CHL-1 = test: cells; format: functional, cell-based; details: Homo sapiens;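 also: cell growth inhibition, read out with a cell viability assay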
Description: SANGER: Inhibition of human CHL-1 cell growth in a cell viability assay.

Kasumi 1 = test: cells; format: functional, cell-based; details: Homo sapiens;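 also: growth inhibition of human Kasumi-1 cells, read out by a cell viability assay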
Description: SANGER: Inhibition of human KASUMI-1 cell growth in a cell viability assay.

NB7 = test: cells; format: functional, cell-based; details: Homo sapiens;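 also: growth inhibition of NB7 cells, read out with a cell viability assay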
Description: SANGER: Inhibition of human NB7 cell growth in a cell viability assay.

Question: Which IC50 (COLO-792) does the source give for `N#C/C(=C1/Nc2ccccc2S1)c1ccnc(NCCc2cccnc2)n1` here?
Answer: > 8 µM

Question: What about the IC50 (DG-75) of the same molecule?
Answer: > 8 µM

Question: And the IC50 (Detroit 562)?
Answer: 7.08 µM

Question: What about the IC50 (DoTc2-4510) of the same molecule?
Answer: 2.08 µM

Question: What about the IC50 (EGI-1) of the same molecule?
Answer: > 8 µM

Question: What about the IC50 (EHEB) of the same molecule?
Answer: > 8 µM

Question: And the IC50 (G-401)?
Answer: 2.82 µM

Question: And the IC50 (GAMG)?
Answer: > 8 µM

Question: And the IC50 (GP5d)?
Answer: 7.52 µM

Question: And the IC50 (HCC1806)?
Answer: 1.53 µM

Question: What about the IC50 (HN) of the same molecule?
Answer: > 8 µM

Question: What about the IC50 (HSC-3) of the same molecule?
Answer: > 8 µM

Question: And the IC50 (HuP-T4)?
Answer: 4.44 µM

Question: What about the IC50 (J82) of the same molecule?
Answer: 4.34 µM

Question: What about the IC50 (LCLC-103H cell line) of the same molecule?
Answer: > 8 µM

Question: And the IC50 (LN-405)?
Answer: > 8 µM

Question: And the IC50 (LP-1)?
Answer: > 8 µM

Question: And the IC50 (M059J)?
Answer: > 8 µM

Question: And the IC50 (M14)?
Answer: > 8 µM

Question: And the IC50 (MDA-MB-157)?
Answer: 7.07 µM

Question: And the IC50 (NB12)?
Answer: > 8 µM

Question: What about the IC50 (NCI-H1623) of the same molecule?
Answer: > 8 µM

Question: What about the IC50 (NCI-H1792) of the same molecule?
Answer: > 8 µM

Question: What about the IC50 (NCI-H187) of the same molecule?
Answer: > 8 µM

Question: What about the IC50 (NCI-H460) of the same molecule?
Answer: > 8 µM

Question: And the IC50 (NCI-H520)?
Answer: > 8 µM

Question: What about the IC50 (NCI-H64) of the same molecule?
Answer: > 8 µM

Question: What about the IC50 (NCI-H716) of the same molecule?
Answer: > 8 µM

Question: And the IC50 (NCI-H719)?
Answer: > 8 µM

Question: What about the IC50 (OVCAR-3) of the same molecule?
Answer: > 8 µM

Question: And the IC50 (PANC-08-13)?
Answer: 3.63 µM

Question: What about the IC50 (RD) of the same molecule?
Answer: > 8 µM

Question: What about the IC50 (RL) of the same molecule?
Answer: > 8 µM

Question: What about the IC50 (RMG-I) of the same molecule?
Answer: > 8 µM

Question: What about the IC50 (RPMI-6666) of the same molecule?
Answer: > 8 µM

Question: And the IC50 (RPMI-7951)?
Answer: > 8 µM

Question: What about the IC50 (RPMI 8402) of the same molecule?
Answer: > 8 µM

Question: And the IC50 (SCC-3)?
Answer: > 8 µM

Question: And the IC50 (SF-295)?
Answer: 3.04 µM

Question: What about the IC50 (SK-HEP1) of the same molecule?
Answer: 4.86 µM

Question: And the IC50 (SK-LU-1)?
Answer: 4.64 µM

Question: What about the IC50 (SW1463) of the same molecule?
Answer: > 8 µM

Question: And the IC50 (SW48)?
Answer: 2.16 µM

Question: What about the IC50 (SW-620) of the same molecule?
Answer: > 8 µM

Question: What about the IC50 (SW626) of the same molecule?
Answer: 5.87 µM

Question: And the IC50 (T98G)?
Answer: > 8 µM

Question: And the IC50 (TCC-SUP)?
Answer: > 8 µM

Question: And the IC50 (A204)?
Answer: 7.34 µM

Question: And the IC50 (ABC-1)?
Answer: > 8 µM

Question: What about the IC50 (BC1 cell line) of the same molecule?
Answer: 5.38 µM

Question: What about the IC50 (BCPAP) of the same molecule?
Answer: 4.45 µM

Question: And the IC50 (BFTC-905)?
Answer: 3.37 µM

Question: And the IC50 (BHT-101)?
Answer: > 8 µM

Question: What about the IC50 (BPH-1) of the same molecule?
Answer: > 8 µM

Question: What about the IC50 (CAL-148) of the same molecule?
Answer: > 8 µM

Question: What about the IC50 (CAL-39) of the same molecule?
Answer: > 8 µM

Question: And the IC50 (CAL-72)?
Answer: > 8 µM

Question: What about the IC50 (THP-1) of the same molecule?
Answer: 5.33 µM

Question: What about the IC50 (TUR) of the same molecule?
Answer: > 8 µM

Question: And the IC50 (UMC-11)?
Answer: > 8 µM

Question: And the IC50 (WM-115)?
Answer: > 8 µM

Question: What about the IC50 (CAMA-1) of the same molecule?
Answer: > 8 µM

Question: What about the IC50 (CHL-1) of the same molecule?
Answer: 6.1 µM

Question: Which results are given for `C/C(O)=C(\C#N)C(=O)Nc1cc(Br)ccc1Br`?
Answer: IC50 (COLO-792): > 16 µM; IC50 (DG-75): > 16 µM; IC50 (Detroit 562): > 16 µM; IC50 (DoTc2-4510): > 16 µM; IC50 (EGI-1): > 16 µM; IC50 (EHEB): > 16 µM; IC50 (G-401): > 16 µM; IC50 (GAMG): > 16 µM; IC50 (GP5d): > 16 µM; IC50 (HCC1806): > 16 µM; IC50 (HN): > 16 µM; IC50 (HSC-3): > 16 µM; IC50 (HuP-T4): > 16 µM; IC50 (J82): > 16 µM; IC50 (LCLC-103H cell line): > 16 µM; IC50 (LN-405): > 16 µM; IC50 (LP-1): > 16 µM; IC50 (M059J): > 16 µM; IC50 (M14): > 16 µM; IC50 (MDA-MB-157): > 16 µM; IC50 (NB12): > 16 µM; IC50 (NCI-H1623): > 16 µM; IC50 (NCI-H1792): > 16 µM; IC50 (NCI-H187): > 16 µM; IC50 (NCI-H460): > 16 µM; IC50 (NCI-H520): > 16 µM; IC50 (NCI-H64): > 16 µM; IC50 (NCI-H716): > 16 µM; IC50 (NCI-H719): > 16 µM; IC50 (OVCAR-3): > 16 µM; IC50 (PANC-08-13): > 16 µM; IC50 (RD): > 16 µM; IC50 (RL): > 16 µM; IC50 (RMG-I): > 16 µM; IC50 (RPMI-6666): > 16 µM; IC50 (RPMI-7951): > 16 µM; IC50 (RPMI 8402): > 16 µM; IC50 (SCC-3): > 16 µM; IC50 (SF-295): > 16 µM; IC50 (SK-HEP1): > 16 µM; IC50 (SK-LU-1): > 16 µM; IC50 (SW1463): > 16 µM; IC50 (SW48): > 16 µM; IC50 (SW-620): > 16 µM; IC50 (SW626): > 16 µM; IC50 (T98G): > 16 µM; IC50 (TCC-SUP): > 16 µM; IC50 (A204): > 16 µM; IC50 (ABC-1): > 16 µM; IC50 (BC1 cell line): > 16 µM; IC50 (BCPAP): > 16 µM; IC50 (BFTC-905): > 16 µM; IC50 (BHT-101): > 16 µM; IC50 (BPH-1): > 16 µM; IC50 (CAL-148): > 16 µM; IC50 (CAL-39): > 16 µM; IC50 (CAL-72): > 16 µM; IC50 (THP-1): > 16 µM; IC50 (TUR): > 16 µM; IC50 (UMC-11): > 16 µM; IC50 (WM-115): > 16 µM; IC50 (CAMA-1): > 16 µM; IC50 (CHL-1): > 16 µM

Question: Which results are given for `CCn1c(-c2nonc2N)nc2cnc(Oc3cccc(NC(=O)c4ccc(OCCN5CCOCC5)cc4)c3)cc21` [GSK-269962A]?
Answer: IC50 (DG-75): > 2.5 µM; IC50 (Kasumi 1): > 2.5 µM; IC50 (LP-1): > 2.5 µM; IC50 (NB12): > 2.5 µM; IC50 (NB7): > 2.5 µM; IC50 (NCI-H187): > 2.5 µM; IC50 (NCI-H64): > 2.5 µM; IC50 (NCI-H716): > 2.5 µM; IC50 (NCI-H719): > 2.5 µM; IC50 (RL): > 2.5 µM; IC50 (RPMI-6666): > 2.5 µM; IC50 (RPMI 8402): > 2.5 µM; IC50 (SCC-3): > 2.5 µM; IC50 (BC1 cell line): > 2.5 µM; IC50 (CAL-148): > 2.5 µM; IC50 (THP-1): > 2.5 µM; IC50 (TUR): > 2.5 µM

Source: ChEMBL document CHEMBL1201861, “Genomics of Drug Sensitity in Cancer screening data, Wellcome Trust Sanger Institute”
